In ChEMBL document CHEMBL5154889, “Development of Novel IP6K Inhibitors for the Treatment of Obesity and Obesity-Induced Metabolic Dysfunctions” (J Med Chem, 2022):
Values belong to the compound of their own block, whether it stands above or below them. The source made the active and inactive calls. The calls are words filed in the database; no cut-off is given here.

What was measured:
[1] = target: T1, Inositol hexakisphosphate kinase 3 (Homo sapiens, UniProt Q96PC2); test: Inhibition of N-terminal 6His-sumo-tagged recombinant human IP6K3 expressed in Escherichia coli assessed as inorganic phosphate release using InsP6 as substrate in presence of ATP measured after 60 to 120 mins by malachite green based colorimetric - DIPP1 coupled enzyme assay
T1 sequence (Q96PC2 whole entry): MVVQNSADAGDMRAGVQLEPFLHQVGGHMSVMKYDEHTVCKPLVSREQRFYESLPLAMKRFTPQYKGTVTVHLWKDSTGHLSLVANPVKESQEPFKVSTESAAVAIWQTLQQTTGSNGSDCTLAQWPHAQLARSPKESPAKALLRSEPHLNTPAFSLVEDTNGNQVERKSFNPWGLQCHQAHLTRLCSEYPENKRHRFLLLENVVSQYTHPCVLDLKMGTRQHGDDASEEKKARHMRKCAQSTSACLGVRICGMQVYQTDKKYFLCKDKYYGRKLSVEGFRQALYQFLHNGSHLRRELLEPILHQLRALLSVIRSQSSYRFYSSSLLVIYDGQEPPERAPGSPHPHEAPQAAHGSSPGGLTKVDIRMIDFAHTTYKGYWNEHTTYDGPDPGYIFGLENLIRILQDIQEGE

Homo sapiens = species: Homo sapiens; test: Selectivity ratio of IC50 for N-terminal 6His-sumo-tagged recombinant human IP6K3 expressed in Escherichia coli assessed as inorganic phosphate release using InsP6 as substrate in presence of ATP measured to IC50 for N-terminal 6His-MBP-tagged recombinant human IP6K1 expressed in Escherichia coli assessed as inorganic phosphate release using InsP6 as substrate in presence of ATP
[2] = target: T2, Inositol hexakisphosphate kinase 2 (Homo sapiens, UniProt Q9UHH9); test: Inhibition of N-terminal 6His-tagged/TEV cleavage site fused recombinant human IP6K2 expressed in Escherichia coli assessed as inorganic phosphate release using InsP6 as substrate in presence of ATP measured after 60 to 120 mins by malachite green based colorimetric - DIPP1 coupled enzyme assay
T2 sequence (Q9UHH9 whole entry): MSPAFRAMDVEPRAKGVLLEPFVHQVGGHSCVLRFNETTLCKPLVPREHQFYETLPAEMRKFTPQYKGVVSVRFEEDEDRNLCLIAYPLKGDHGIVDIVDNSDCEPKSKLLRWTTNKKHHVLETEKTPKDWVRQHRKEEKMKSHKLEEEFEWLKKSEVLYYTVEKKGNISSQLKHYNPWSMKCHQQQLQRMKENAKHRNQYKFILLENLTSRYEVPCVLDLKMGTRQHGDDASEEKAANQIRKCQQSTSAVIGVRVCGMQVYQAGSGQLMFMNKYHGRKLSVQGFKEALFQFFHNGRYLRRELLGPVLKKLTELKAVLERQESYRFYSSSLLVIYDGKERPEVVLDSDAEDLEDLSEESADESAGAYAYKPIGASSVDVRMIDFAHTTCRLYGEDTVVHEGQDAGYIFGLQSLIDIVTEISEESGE

Mus musculus [3] = test: Anti-obesity activity in high fat diet-induced obesity C57BL6J mouse model assessed as reduction in epididymal-adipose tissue weight at 5 mg/kg, ip administered for 4 weeks; format: functional, organism-based
Mus musculus [4] = test: Anti-diabetic activity in 16 hrs fasted C57BL6J mouse model of high fat diet-induced obesity assessed as improved blood glucose disposal at 2 mg/kg, ip administered for 3 weeks by insulin tolerance test; format: functional, organism-based
[5] = AUClast in diet-induced obesity CD1 mouse at 5 mg/kg, ip measured up to 24 hrs post-dosing by LC-MS/MS analysis; format: ADME, organism-based; design: dose 5 mg/kg, time < 24 hrs, route ip; details: in vivo
[6] = Clearance in diet-induced obesity CD1 mouse at 5 mg/kg, iv measured up to 24 hrs post-dosing by LC-MS/MS analysis; format: ADME, organism-based; details: in vivo
[7] = target: Inositol-trisphosphate 3-kinase A (Homo sapiens) (UniProt P23677); test: Inhibition of N-terminal 6His-tagged/TEV cleavage site fused recombinant human IP3KA (173 to 461 residues) expressed in Escherichia coli using [3H]-Ins91,4,5)P3 as substrate measured after 60 mins by HPLC analysis
[8] = AUClast in diet-induced obesity CD1 mouse model at 5 mg/kg, iv measured up to 24 hrs post-dosing by LC-MS/MS analysis; format: ADME, organism-based; design: dose 5 mg/kg, time < 24 hrs, route iv; details: in vivo
Mus musculus [9] = test: Anti-obesity activity in high fat diet-induced obesity C57BL6J mouse model assessed as reduction in fat mass at 5 mg/kg, ip administered for 4 weeks; format: functional, organism-based
Mus musculus [10] = test: Anti-diabetic activity in 5 hrs fasted C57BL6J mouse model of high fat diet-induced obesity assessed as improved blood glucose disposal at […], ip administered for 1 weeks by insulin tolerance test; format: functional, organism-based
Mus musculus [11] = test: Anti-obesity activity in high fat diet-induced obesity C57BL6J mouse model assessed as reduction in lean mass at 5 mg/kg, ip administered for 4 weeks; format: functional, organism-based
[12] = target: Death-associated protein kinase 1 (Homo sapiens) (UniProt P53355); test: Inhibition of DAPK1 (unknown origin) at 1 uM relative to control
Mus musculus [13] = test: Reduction in liver weight in C57BL6J mouse model of high fat diet-induced obesity at 2 mg/kg, ip administered for 4 weeks by H and E staining assay; format: functional, organism-based
Mus musculus [14] = test: Reduction in hepatic steatosis in C57BL6J mouse model of high fat diet-induced obesity at 2 mg/kg, ip administered for 4 weeks by H and E staining assay; format: functional, organism-based
CYP2C9 = CYP2C9 (Homo sapiens, UniProt P11712); test: Inhibition of CYP2C9 in human liver microsomes at 10 uM in presence of NADPH by LC-MS/MS analysis; format: ADME, Microsome
Mus musculus [15] = test: Anti-obesity activity in high fat diet-induced obesity C57BL6J mouse model assessed as reduction in body weight at 5 mg/kg, ip administered for 4 weeks; format: functional, organism-based
Mus musculus [16] = test: Anti-obesity activity in high fat diet-induced obesity C57BL6J mouse model assessed as reduction in inguinal-adipose tissue weight at 5 mg/kg, ip administered for 4 weeks; format: functional, organism-based
Mus musculus [17] = test: Anti-diabetic activity in 16 hrs fasted C57BL6J mouse model of high fat diet-induced obesity assessed as reduction in pyruvate-induced gluconeogenesis at 2 mg/kg, ip administered for 4 weeks by pyruvate tolerance test; format: functional, organism-based
[18] = target: T3, Inositol hexakisphosphate kinase 1 (Homo sapiens, UniProt Q92551); test: Inhibition of recombinant full length human IP6K1 assessed as inorganic phosphate release measured after 30 mins by ADP-Glo Max assay
Target sequence in this assay (Q92551 whole entry): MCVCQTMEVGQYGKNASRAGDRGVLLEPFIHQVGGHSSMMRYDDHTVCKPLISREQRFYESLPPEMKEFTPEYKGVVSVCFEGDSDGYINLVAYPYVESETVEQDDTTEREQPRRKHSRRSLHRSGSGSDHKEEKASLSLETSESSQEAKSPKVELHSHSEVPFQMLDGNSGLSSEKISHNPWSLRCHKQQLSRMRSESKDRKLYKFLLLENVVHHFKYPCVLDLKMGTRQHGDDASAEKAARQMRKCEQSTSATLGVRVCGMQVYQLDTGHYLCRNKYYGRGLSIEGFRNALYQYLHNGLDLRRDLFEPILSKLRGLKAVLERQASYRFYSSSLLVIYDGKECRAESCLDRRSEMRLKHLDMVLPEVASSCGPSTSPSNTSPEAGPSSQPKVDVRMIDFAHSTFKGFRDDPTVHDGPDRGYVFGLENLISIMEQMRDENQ

[19] = target: T3, Inositol hexakisphosphate kinase 1; test: Inhibition of recombinant full length human IP6K1 in HCT-116 cells assessed as reduction in InsP7 level at 10 to 30 uM measured after 30 mins by toluidine blue staining based analysis; format: cell-based; details: dose 10-30 µM
Target sequence in this assay (Q92551 whole entry, looked up): as the sequence (Q92551 whole entry) above

[20] = target: T1, Inositol hexakisphosphate kinase 3; test: Inhibition of recombinant full length human IP6K3 assessed as inorganic phosphate release measured after 2 hrs by ADP-Glo Max assay
[21] = target: T2, Inositol hexakisphosphate kinase 2; test: Inhibition of recombinant full length human IP6K2 assessed as inorganic phosphate release measured after 30 mins by ADP-Glo Max assay
[22] = target: T3, Inositol hexakisphosphate kinase 1; test: Inhibition of N-terminal 6His-MBP-tagged recombinant human IP6K1 expressed in Escherichia coli assessed as inorganic phosphate release using InsP6 as substrate in presence of ATP measured after 60 to 120 mins by malachite green based colorimetric - DIPP1 coupled enzyme assay
Target sequence in this assay (Q92551 whole entry): as above

Chain of Death-associated protein kinase 1 (Homo sapiens) (P53355 whole entry, looked up): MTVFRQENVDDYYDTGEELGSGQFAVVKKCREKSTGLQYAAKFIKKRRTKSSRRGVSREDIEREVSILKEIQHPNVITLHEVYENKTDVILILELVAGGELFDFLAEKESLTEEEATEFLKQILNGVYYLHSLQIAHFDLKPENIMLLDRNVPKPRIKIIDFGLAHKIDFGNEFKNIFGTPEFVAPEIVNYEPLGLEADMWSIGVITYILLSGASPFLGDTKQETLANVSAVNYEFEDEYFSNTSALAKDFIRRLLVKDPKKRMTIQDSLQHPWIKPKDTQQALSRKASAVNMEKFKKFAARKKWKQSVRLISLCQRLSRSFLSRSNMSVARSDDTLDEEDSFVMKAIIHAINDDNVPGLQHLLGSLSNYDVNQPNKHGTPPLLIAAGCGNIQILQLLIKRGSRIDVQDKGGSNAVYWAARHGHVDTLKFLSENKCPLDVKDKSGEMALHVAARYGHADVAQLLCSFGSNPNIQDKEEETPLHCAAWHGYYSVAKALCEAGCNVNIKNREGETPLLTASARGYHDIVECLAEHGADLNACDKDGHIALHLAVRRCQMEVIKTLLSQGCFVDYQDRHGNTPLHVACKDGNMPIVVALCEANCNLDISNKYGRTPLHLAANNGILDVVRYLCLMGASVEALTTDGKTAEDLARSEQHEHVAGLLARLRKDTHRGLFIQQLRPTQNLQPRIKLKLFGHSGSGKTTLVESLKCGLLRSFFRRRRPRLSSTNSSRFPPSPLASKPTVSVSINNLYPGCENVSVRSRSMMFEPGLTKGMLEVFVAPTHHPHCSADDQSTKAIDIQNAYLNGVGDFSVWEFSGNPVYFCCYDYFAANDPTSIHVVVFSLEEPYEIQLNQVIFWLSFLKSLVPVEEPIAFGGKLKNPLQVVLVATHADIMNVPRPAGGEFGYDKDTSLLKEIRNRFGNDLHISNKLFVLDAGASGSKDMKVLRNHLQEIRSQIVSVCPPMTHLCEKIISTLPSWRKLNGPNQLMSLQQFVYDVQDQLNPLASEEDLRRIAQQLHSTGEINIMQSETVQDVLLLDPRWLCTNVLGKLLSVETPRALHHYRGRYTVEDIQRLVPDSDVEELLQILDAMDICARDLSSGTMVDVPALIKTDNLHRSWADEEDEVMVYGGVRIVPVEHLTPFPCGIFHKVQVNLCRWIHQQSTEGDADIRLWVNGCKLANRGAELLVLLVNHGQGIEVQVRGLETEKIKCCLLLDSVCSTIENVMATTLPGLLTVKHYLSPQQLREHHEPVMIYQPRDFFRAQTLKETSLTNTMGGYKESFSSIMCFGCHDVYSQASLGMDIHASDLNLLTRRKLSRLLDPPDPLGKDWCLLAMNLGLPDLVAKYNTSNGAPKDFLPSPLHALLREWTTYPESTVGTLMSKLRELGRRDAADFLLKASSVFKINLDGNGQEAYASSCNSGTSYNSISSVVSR
Chain of Inositol-trisphosphate 3-kinase A (Homo sapiens) (P23677 whole entry, the tested form may be a part): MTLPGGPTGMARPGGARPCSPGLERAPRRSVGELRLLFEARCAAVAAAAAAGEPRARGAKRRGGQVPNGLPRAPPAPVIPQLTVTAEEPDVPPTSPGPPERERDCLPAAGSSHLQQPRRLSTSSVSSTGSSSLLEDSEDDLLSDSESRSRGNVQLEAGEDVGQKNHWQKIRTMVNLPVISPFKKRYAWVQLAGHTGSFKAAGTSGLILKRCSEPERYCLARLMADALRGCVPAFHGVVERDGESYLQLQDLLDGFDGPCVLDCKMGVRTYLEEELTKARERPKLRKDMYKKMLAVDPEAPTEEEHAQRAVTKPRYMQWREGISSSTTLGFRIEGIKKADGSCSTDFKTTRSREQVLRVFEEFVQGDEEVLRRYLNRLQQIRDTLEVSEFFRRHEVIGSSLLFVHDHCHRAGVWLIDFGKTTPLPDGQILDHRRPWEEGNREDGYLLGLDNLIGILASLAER
Chain of CYP2C9 (P11712 whole entry): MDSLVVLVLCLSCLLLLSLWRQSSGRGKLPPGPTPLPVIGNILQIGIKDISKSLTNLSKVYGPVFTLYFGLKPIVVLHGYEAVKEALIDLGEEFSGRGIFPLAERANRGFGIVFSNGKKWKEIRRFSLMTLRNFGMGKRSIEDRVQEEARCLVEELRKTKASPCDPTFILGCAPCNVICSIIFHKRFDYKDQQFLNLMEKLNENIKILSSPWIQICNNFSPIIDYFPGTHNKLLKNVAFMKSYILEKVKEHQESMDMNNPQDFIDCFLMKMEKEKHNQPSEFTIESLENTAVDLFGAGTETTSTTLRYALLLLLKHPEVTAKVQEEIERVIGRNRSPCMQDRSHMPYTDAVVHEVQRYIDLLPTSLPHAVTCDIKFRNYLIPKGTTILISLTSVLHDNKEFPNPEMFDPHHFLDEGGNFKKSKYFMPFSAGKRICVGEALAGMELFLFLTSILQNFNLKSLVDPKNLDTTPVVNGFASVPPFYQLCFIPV

Structure (SMILES): O=C(O)c1ccc2noc(-c3cccc(-c4ccccc4)c3)c2c1
IC50 [1]: 840 nM
IC50 [2]: 130 nM

Structure (SMILES): O=C(O)c1ccc2noc(-c3ccc(-c4ccccc4)cc3)c2c1
Activity (Mus musculus [3]): Active
Activity (Mus musculus [4]): Active
AUClast [5]: 2527 ng·h/mL
clearance [6]: 13.7 mL/min/kg
inhibition [7]: Active
AUClast [8]: 6054 ng·h/mL
Activity (Mus musculus [9]): Active
Activity (Mus musculus [10]): Active
Activity (Mus musculus [11]): Active
inhibition [12]: 31%
Activity (Mus musculus [13]): Active
Activity (Mus musculus [14]): Active
inhibition at 10 µM (CYP2C9): 36%
Activity (Mus musculus [15]): Active
Activity (Mus musculus [16]): Active
Activity (Mus musculus [17]): Active

Structure (SMILES): O=C(O)c1ccc2noc(-c3ccc(Cc4ccccc4)cc3)c2c1
IC50 [1]: 1290 nM

Structure (SMILES): O=C(O)c1ccc2noc(-c3ccc(N4CCCCC4)cc3)c2c1
IC50 [1]: 1790 nM

Structure (SMILES): O=C(O)c1ccc2noc(-c3ccc(N4CCCC4=O)cc3)c2c1
IC50 [1]: 2170 nM

Structure (SMILES): O=C(O)c1ccc2noc(-c3ccc(NC(=O)c4ccncn4)cc3)c2c1
IC50 [1]: 430 nM

Structure (SMILES): CC(C)NC(=O)c1ccc(-c2onc3ccc(C(=O)O)cc23)cc1
IC50 [1]: 340 nM
IC50 [2]: 350 nM

Structure (SMILES): O=C(O)/C=C/c1ccc2noc(-c3ccc(OC(F)(F)F)cc3)c2c1
IC50 [1]: 8370 nM

Structure (SMILES): O=C(O)/C=C/c1ccc2c(-c3ccccc3)onc2c1
Ratio IC50 (Homo sapiens): 3.6

Structure (SMILES): Cc1cccc(-c2onc3ccc(/C=C/C(=O)O)cc23)c1
IC50 [1]: 3590 nM

Structure (SMILES): O=C(O)/C=C/c1ccc2noc(-c3ccc(Oc4ccccc4)cc3)c2c1
IC50 [1]: 760 nM

Structure (SMILES): O=C(O)c1ccc2noc(-c3ccc(NC(=O)C4CCCC4)cc3)c2c1
IC50 [1]: 240 nM

Structure (SMILES): O=C(O)c1ccc2noc(-c3cccc(NC(=O)C4CC4)c3)c2c1
IC50 [1]: 2810 nM

Structure (SMILES): O=C(O)c1ccc2noc(-c3ccc(NC(=O)c4ccccc4)cc3)c2c1
IC50 [1]: 200 nM

Structure (SMILES): O=C(O)/C=C/c1ccc2noc(-c3ccc(-c4ccccc4)cc3)c2c1
IC50 [1]: 200 nM

Structure (SMILES): O=C(O)c1ccc2noc(-c3ccc(-c4ccncc4)cc3)c2c1
IC50 [1]: 670 nM

Structure (SMILES): O=C(O)c1ccc2noc(-c3cccc(Oc4ncc(Cl)cc4Cl)c3)c2c1
IC50 [1]: 3090 nM

Structure (SMILES): O=C(O)c1ccc2noc(-c3cccc(C(F)(F)F)c3)c2c1
IC50 [1]: 4620 nM

Structure (SMILES): O=C(O)c1ccc2c(c1)C1(CCN(C(=O)c3ccc(Cl)cc3)CC1)C(=O)N2
IC50 [18]: 27 nM
inhibition [19]: Active
IC50 [20]: 8 nM
IC50 [21]: 25 nM

Structure (SMILES): O=C(O)c1ccc2noc(-c3ccc(Oc4ncc(Cl)cc4Cl)cc3)c2c1
IC50 [1]: 2250 nM
IC50 [22]: 430 nM
Ratio IC50 (Homo sapiens): 5.2

Other lines, results leading:

IC50 [1]: > 100000 nM
Ratio IC50 (Homo sapiens): > 3.4
Structure (SMILES): CN(C)C(=O)/C=C/c1ccc2noc(-c3ccccc3)c2c1

IC50 [1]: 10900 nM
Structure (SMILES): O=C(O)c1ccc2noc(-c3cccc(Oc4ccccn4)c3)c2c1

IC50 [1]: 2440 nM
Structure (SMILES): Cc1cc(C)cc(-c2onc3ccc(C(=O)O)cc23)c1

IC50 [1]: 210 nM
IC50 [2]: 820 nM
Structure (SMILES): CC(C)C(=O)Nc1ccc(-c2onc3ccc(C(=O)O)cc23)cc1

IC50 [1]: 550 nM
Structure (SMILES): O=C(O)c1ccc2noc(-c3ccc(Oc4ccccc4)cc3)c2c1

IC50 [1]: 850 nM
Structure (SMILES): O=C(O)c1ccc2noc(-c3cccc(Oc4ccccc4)c3)c2c1

IC50 [1]: 2690 nM
Structure (SMILES): O=C(O)c1ccc2noc(-c3ccccc3)c2c1

IC50 [1]: 14500 nM
IC50 [22]: 1000 nM
IC50 [2]: 2000 nM
Structure (SMILES): O=[N+]([O-])c1ccc(CNc2nc(NCc3cccc(C(F)(F)F)c3)nc3[nH]cnc23)cc1

IC50 [1]: 1410 nM
Structure (SMILES): Cc1cccc(-c2onc3ccc(C(=O)O)cc23)c1
